Reference: patent EP3046573B1, “AMYLIN ANALOGUES” (Zealand Pharma A/S, priority 2013, dated 2015)
Numbered stars: 1 amine (or outer) side, 2 acyl side, 3 side chain; on linkers, the order of the positions; unused ones are H or OH. Bridge positions count the residues as written; N and C are the ends. Square brackets hold non-standard residues; d marks the D form. Peptide text beside a SMILES is read from it. * marks the point of attachment. C20 diacid = O=C(O)CCCCCCCCCCCCCCCCCCC(=O)*; γGlu = O=C(O)[C@H](CCC(=O)[*:2])N[*:1]; NMeI = CC[C@H](C)[C@H](NC)C(=O)O; Sar = CNCC(=O)O

Tests used:
[1] = target: T1, human calcitonin receptor (hCTR2) (Homo sapiens, UniProt P30988); test: hCTR2 assay: induction of cAMP (AlphaScreen cAMP Assay kit) in COS7 cells expressing hCTR2; type: cell-based
T1 construct: expressed in transfected cells
T1 sequence (P30988 25-474): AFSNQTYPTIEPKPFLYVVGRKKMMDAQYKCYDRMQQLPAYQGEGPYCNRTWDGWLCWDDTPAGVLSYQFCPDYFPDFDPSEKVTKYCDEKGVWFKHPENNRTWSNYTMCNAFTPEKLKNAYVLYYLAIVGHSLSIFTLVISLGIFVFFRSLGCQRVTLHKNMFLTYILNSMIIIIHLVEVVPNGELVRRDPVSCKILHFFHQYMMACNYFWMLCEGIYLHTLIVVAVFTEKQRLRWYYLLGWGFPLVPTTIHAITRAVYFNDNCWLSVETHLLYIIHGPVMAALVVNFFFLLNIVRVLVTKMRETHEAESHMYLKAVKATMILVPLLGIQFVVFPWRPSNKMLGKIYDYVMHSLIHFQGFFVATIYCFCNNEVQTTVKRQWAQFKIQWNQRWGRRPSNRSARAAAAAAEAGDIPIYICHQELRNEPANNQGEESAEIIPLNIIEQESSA
Outline: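 Stable RAMP-naive COS7 clone expressing hCTR2 was stimulated with increasing peptide concentrations in Tyrode buffer (pH 7.4) with 100 µM IBMX and 0.1% casein for 15 min at 37° C. Cells were lysed and cAMP measured by AlphaScreen. EC50 and efficacy relative to pramlintide came from 4PL curve fits.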

[2] = target: T2, human amylin receptor 3 (hAMYR3) consisting of hCTR2 co-expressed with human Receptor Activity Modifying Protein 3 (hRAMP3) (Homo sapiens, UniProt O60896+P30988); test: hAMYR3 assay: induction of cAMP (AlphaScreen cAMP Assay kit) in COS7 cells expressing hAMYR3; type: cell-based
T2 construct: expressed in transfected cells
T2 sequence (P30988 25-474): T1 sequence (P30988 25-474)
T2 sequence (O60896 24-148 partner): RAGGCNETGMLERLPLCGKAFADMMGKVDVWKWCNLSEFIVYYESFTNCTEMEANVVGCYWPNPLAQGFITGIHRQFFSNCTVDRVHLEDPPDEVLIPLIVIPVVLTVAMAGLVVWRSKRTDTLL
Outline: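 Stable COS7 clone co-expressing hCTR2 and hRAMP3, stimulated 15 min at 37° C with increasing peptide in Tyrode buffer pH 7.4 with 100 µM IBMX and 0.1% casein. cAMP measured by AlphaScreen after lysis; EC50 and % efficacy versus pramlintide from 4PL fit.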

[3] = Solubility assessment (turbidity absorbance at 325 nm); type: physicochemical; conditions: stock 2 mg/ml diluted 1:1, ambient temperature (typically 25°C), n=1; for Solubility, Acetate buffer pH 4: 100 mM acetate buffer pH 4.0; for Solubility, Acetate buffer pH 5: 100 mM acetate buffer pH 5.0; for Solubility, Histidine buffer pH 6: 100 mM histidine buffer pH 6.0; for Solubility, Histidine buffer pH 7: 100 mM histidine buffer pH 7.0; for Solubility, Phosphate buffer pH 6: 100 mM phosphate buffer pH 6.0; for Solubility, Phosphate buffer pH 7: 100 mM phosphate buffer pH 7.0; for Solubility, Phosphate buffer pH 7.5: 100 mM phosphate buffer pH7.5
Outline: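 Peptide stock (2 mg/ml, water pH 2.5) diluted 1:1 into 100 mM acetate (pH 4.0, 5.0), histidine (pH 6.0, 7.0) or phosphate (pH 6.0–7.5) buffer; absorbance at 325 nm read at about 25°C, n=1. A325 ≤ 0.02 taken as solubility ≥ 1 mg/ml.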

Compound	EC50 [1] [pM]	EC50 [2] [pM]	Solubility, Acetate buffer pH 4 [3]	Solubility, Acetate buffer pH 5 [3]	Solubility, Histidine buffer pH 6 [3]	Solubility, Histidine buffer pH 7 [3]	Solubility, Phosphate buffer pH 6 [3]	Solubility, Phosphate buffer pH 7 [3]	Solubility, Phosphate buffer pH 7.5 [3]
CC[C@H](C)[C@@H](C(=O)N[C@@H](CC(C)C)C(=O)N[C@@H](CO)C(=O)N[C@@H](CO)C(=O)N[C@H](C(=O)N[C@@H](CC(N)=O)C(=O)N[C@H](C(=O)NCC(=O)N[C@@H](CO)C(=O)N[C@@H](CC(N)=O)C(=O)N[C@H](C(=O)NCC(N)=O)[C@@H](C)O)C(C)C)[C@@H](C)O)N(C)C(=O)[C@H](C)NC(=O)CN(C)C(=O)[C@H](Cc1ccccc1)NC(=O)[C@H](CC(N)=O)NC(=O)[C@H](CC(N)=O)NC(=O)[C@H](CO)NC(=O)[C@H](CO)NC(=O)[C@H](CCCNC(=N)N)NC(=O)[C@H](Cc1c[nH]cn1)NC(=O)[C@H](CC(C)C)NC(=O)[C@H](Cc1ccccc1)NC(=O)[C@H](CCC(=O)O)NC(=O)[C@H](C)NC(=O)[C@H](CC(C)C)NC(=O)[C@H](CCCNC(=N)N)NC(=O)[C@H](CCC(N)=O)NC(=O)[C@@H](NC(=O)[C@H](C)NC(=O)[C@@H]1CSSC[C@H](NC(=O)[C@H](CCCNC(=N)N)NC(=O)CC[C@H](NC(=O)CCCCCCCCCCCCCCCCCCC(=O)O)C(=O)O)C(=O)N[C@@H](CC(N)=O)C(=O)N[C@@H]([C@@H](C)O)C(=O)N[C@@H](C)C(=O)N[C@@H]([C@@H](C)O)C(=O)N1)[C@@H](C)O [Compound 96, [19CD]-isoGlu-RC()NTATC()ATQRLAEFLHRSSNNF-Gly(Me)-A-Ile(Me)-LSSTNVGSNTG-NH2] ({C20 diacid-γGlu}-RCNTATCATQRLAEFLHRSSNNF[Sar]A[NMeI]LSSTNVGSNTG-NH2; disulfide 2-7)	340	5600	SS (SS indicates solubility ≥ 1mg/ml)	SS (SS indicates solubility ≥ 1mg/ml)	SS (SS indicates solubility ≥ 1mg/ml)	SS (SS indicates solubility ≥ 1mg/ml)	SS (SS indicates solubility ≥ 1mg/ml)	SS (SS indicates solubility ≥ 1mg/ml)	SS (SS indicates solubility ≥ 1mg/ml)
CC[C@H](C)[C@@H](C(=O)N[C@@H](CC(C)C)C(=O)N[C@@H](CO)C(=O)N[C@@H](CO)C(=O)N[C@H](C(=O)N[C@@H](CC(N)=O)C(=O)N[C@H](C(=O)NCC(=O)N[C@@H](CO)C(=O)N[C@@H](CC(N)=O)C(=O)N[C@H](C(=O)N[C@@H](C)C(N)=O)[C@@H](C)O)C(C)C)[C@@H](C)O)N(C)C(=O)[C@H](C)NC(=O)CN(C)C(=O)[C@H](Cc1ccccc1)NC(=O)[C@H](CC(N)=O)NC(=O)[C@H](CC(N)=O)NC(=O)[C@H](CO)NC(=O)[C@H](CO)NC(=O)[C@H](CCCNC(=N)N)NC(=O)[C@H](Cc1c[nH]cn1)NC(=O)[C@H](CC(C)C)NC(=O)[C@H](Cc1ccccc1)NC(=O)[C@H](CCC(=O)O)NC(=O)[C@H](C)NC(=O)[C@H](CC(C)C)NC(=O)[C@H](CCCNC(=N)N)NC(=O)[C@H](CCC(N)=O)NC(=O)[C@@H](NC(=O)[C@H](C)NC(=O)[C@@H]1CSSC[C@H](NC(=O)[C@H](CCCNC(=N)N)NC(=O)CC[C@H](NC(=O)CCCCCCCCCCCCCCCCCCC(=O)O)C(=O)O)C(=O)N[C@@H](CC(N)=O)C(=O)N[C@@H]([C@@H](C)O)C(=O)N[C@@H](C)C(=O)N[C@@H]([C@@H](C)O)C(=O)N1)[C@@H](C)O [Compound 97, [19CD]-isoGlu-RC()NTATC()ATQRLAEFLHRSSNNF-Gly(Me)-A-Ile(Me)-LSSTNVGSNTA-NH2] ({C20 diacid-γGlu}-RCNTATCATQRLAEFLHRSSNNF[Sar]A[NMeI]LSSTNVGSNTA-NH2; disulfide 2-7)	330	680	SS (SS indicates solubility ≥ 1mg/ml)	SS (SS indicates solubility ≥ 1mg/ml)	SS (SS indicates solubility ≥ 1mg/ml)	SS (SS indicates solubility ≥ 1mg/ml)	SS (SS indicates solubility ≥ 1mg/ml)	SS (SS indicates solubility ≥ 1mg/ml)	SS (SS indicates solubility ≥ 1mg/ml)
CC[C@H](C)[C@@H](C(=O)N[C@@H](CC(C)C)C(=O)N[C@@H](CO)C(=O)N[C@@H](CO)C(=O)N[C@H](C(=O)N[C@@H](CC(N)=O)C(=O)N[C@H](C(=O)NCC(=O)N[C@@H](CO)C(=O)N[C@@H](CC(N)=O)C(=O)N[C@H](C(=O)N[C@H](C(N)=O)C(C)C)[C@@H](C)O)C(C)C)[C@@H](C)O)N(C)C(=O)[C@H](C)NC(=O)CN(C)C(=O)[C@H](Cc1ccccc1)NC(=O)[C@H](CC(N)=O)NC(=O)[C@H](CC(N)=O)NC(=O)[C@H](CO)NC(=O)[C@H](CO)NC(=O)[C@H](CCCNC(=N)N)NC(=O)[C@H](Cc1c[nH]cn1)NC(=O)[C@H](CC(C)C)NC(=O)[C@H](Cc1ccccc1)NC(=O)[C@H](CCC(=O)O)NC(=O)[C@H](C)NC(=O)[C@H](CC(C)C)NC(=O)[C@H](CCCNC(=N)N)NC(=O)[C@H](CCC(N)=O)NC(=O)[C@@H](NC(=O)[C@H](C)NC(=O)[C@@H]1CSSC[C@H](NC(=O)[C@H](CCCNC(=N)N)NC(=O)CC[C@H](NC(=O)CCCCCCCCCCCCCCCCCCC(=O)O)C(=O)O)C(=O)N[C@@H](CC(N)=O)C(=O)N[C@@H]([C@@H](C)O)C(=O)N[C@@H](C)C(=O)N[C@@H]([C@@H](C)O)C(=O)N1)[C@@H](C)O [Compound 98, [19CD]-isoGlu-RC()NTATC()ATQRLAEFLHRSSNNF-Gly(Me)-A-Ile(Me)-LSSTNVGSNTV-NH2] ({C20 diacid-γGlu}-RCNTATCATQRLAEFLHRSSNNF[Sar]A[NMeI]LSSTNVGSNTV-NH2; disulfide 2-7)	350	1700	SS (SS indicates solubility ≥ 1mg/ml)	SS (SS indicates solubility ≥ 1mg/ml)	SS (SS indicates solubility ≥ 1mg/ml)	SS (SS indicates solubility ≥ 1mg/ml)	II (II indicates solubility ≤ 1 mg/ml)	SS (SS indicates solubility ≥ 1mg/ml)	SS (SS indicates solubility ≥ 1mg/ml)
